molecular target: T1, rat metabotropic glutamate receptor 5 (mGluR5) (Rattus norvegicus, UniProt P31424); test: Calcium mobilization assay (FLIPR) for negative or positive allosteric activity, HEK 293 cells; type: cell-based; conditions: HEK293, negative allosteric modulation, inhibition of EC80 glutamate response; read-out: FLIPR maximum inhibition
T1 construct: expressed in transfected cells; host or cells: HEK 293
Procedure: The cDNA for rat metabotropic glutamate receptor 5 (mGluR5) was a generous gift from S. Nakanishi (Kyoto University, Kyoto, Japan). The mGluR5 was stably expressed in a HEK 293 cell line and grown in Dulbecco's Modified Eagle Medium (DMEM) (Invitrogen, Carlsbad, Calif.) with supplements (10% bovine calf serum, 4 mM glutamine, 100 units/mL penicillin, 100 μg/mL streptomycin and 0.75 mM G1418) at 37° C., 5% CO2. Twenty-four hours prior to assay, cells were seeded into 384-well black wall microtiter plates coated with poly-D-lysine. Just prior to assay, media was aspirated and cells dye-loaded (25 μL/well) with 3 μM Fluo-4/0.01% pluronic acid in assay buffer (Hank's Balanced Saline Solution (HBSS)): 150 mM NaCl, 5 mM KCl, 1 mM CaCl2, 1 mM MgCl2, plus 20 mM N-2-Hydroxyethylpiperazine-N′-2-ethanesulfonic acid (HEPES), pH 7.4, 0.1% bovine serum albumin (BSA) and 2.5 mM probenicid) for 1 hour in 5% CO2 at 37° C. After excess dye was discarded, cells were washed in assay buffer and layered with a final volume equal to 30 μL/well. Basal fluorescence is monitored in a fluorometric imaging plate reader (FLIPR) (Molecular Devices, Sunnyvale, Calif.) with an excitation wavelength of 488 nm and an emission range of 500 to 560 nm. Laser excitation energy was adjusted so that basal fluorescence readings were approximately 10,000 relative fluorescent units. Cells were stimulated with an EC20 or an EC80 concentration of glutamate in the presence of a compound to be tested, both diluted in assay buffer, and relative fluorescent units were measured at defined intervals (exposure=0.6 sec) over a 3 min period at room temperature. Basal readings derived from negative controls were subtracted from all samples. Maximum change in fluorescence was calculated for each well. Concentration-response curves derived from the maximum change in fluorescence were analyzed by nonlinear regression (Hill equation). A negative modulator can be identified from these concentration-response curves if a compound produces a concentration dependent inhibition of the EC80 glutamate response. […] Examples 11-163 also were tested in the above assay.
A positive modulator can be identified from these concentration-response curves if a compound produces a concentration dependent increase in the EC20 glutamate response.

T1 sequence (P31424 21-1171 isoform P31424-2 limits assumed): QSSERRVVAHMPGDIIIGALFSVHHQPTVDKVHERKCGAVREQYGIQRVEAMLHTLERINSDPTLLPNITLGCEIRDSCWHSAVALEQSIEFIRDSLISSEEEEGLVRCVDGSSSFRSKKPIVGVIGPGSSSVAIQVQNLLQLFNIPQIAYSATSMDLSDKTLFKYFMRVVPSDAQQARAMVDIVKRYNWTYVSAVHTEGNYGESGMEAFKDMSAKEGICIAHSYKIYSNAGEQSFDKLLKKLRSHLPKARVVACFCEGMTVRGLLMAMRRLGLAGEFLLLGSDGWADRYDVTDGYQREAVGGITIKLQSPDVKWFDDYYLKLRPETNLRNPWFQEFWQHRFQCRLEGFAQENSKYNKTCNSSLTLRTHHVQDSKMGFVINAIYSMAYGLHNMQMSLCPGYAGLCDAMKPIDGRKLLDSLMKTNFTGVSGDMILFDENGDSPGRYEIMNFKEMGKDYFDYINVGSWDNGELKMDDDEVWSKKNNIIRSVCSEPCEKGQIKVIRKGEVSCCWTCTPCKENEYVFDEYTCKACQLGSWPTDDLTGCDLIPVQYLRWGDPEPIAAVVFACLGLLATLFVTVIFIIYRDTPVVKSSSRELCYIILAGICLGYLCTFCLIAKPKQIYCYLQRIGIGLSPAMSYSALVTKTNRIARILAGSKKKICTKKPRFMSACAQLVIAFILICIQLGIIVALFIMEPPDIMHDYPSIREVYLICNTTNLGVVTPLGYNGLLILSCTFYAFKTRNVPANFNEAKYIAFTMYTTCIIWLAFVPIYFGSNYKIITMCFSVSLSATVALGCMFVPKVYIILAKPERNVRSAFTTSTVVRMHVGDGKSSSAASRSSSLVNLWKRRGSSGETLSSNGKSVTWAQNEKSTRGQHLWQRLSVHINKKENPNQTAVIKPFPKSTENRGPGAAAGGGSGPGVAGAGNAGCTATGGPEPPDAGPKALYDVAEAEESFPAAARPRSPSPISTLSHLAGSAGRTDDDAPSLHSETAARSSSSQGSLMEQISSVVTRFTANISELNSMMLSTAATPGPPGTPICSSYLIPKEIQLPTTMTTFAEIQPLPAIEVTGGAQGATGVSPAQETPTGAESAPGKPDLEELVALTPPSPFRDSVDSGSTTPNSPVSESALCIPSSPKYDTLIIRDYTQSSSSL

`O=C(NC12CC3CC(C1)CC(NC(=O)C1CC1(F)F)(C3)C2)c1ccccn1` (stereo not shown) [Example 83, Pyridine-2-carboxylic acid {3-[(2,2-difluoro-cyclopropanecarbonyl)-amino]-adamantan-1-yl}-amide] and `N#Cc1cccc(C(=O)NC23CC4CC(C2)CC(NC(=O)c2ccccn2)(C4)C3)c1` [Example 7, Pyridine-2-carboxylic acid[3-(3-cyano-benzoylamino)-adamantan-1-yl]-acid] cannot be ordered by Emax: 63 to 99% for the first, 90 to 99% for the second.

`COc1cc(C(=O)NC23CC4CC(C2)CC(NC(=O)c2cncc(C)n2)(C4)C3)ccn1` [Example 154, 6-Methyl-pyrazine-2-carboxylic acid {3-[(2-methoxy-pyridine-4-carbonyl)-amino]-adamantan-1-yl}-amide] and `Cc1ccnc(C(=O)NC23CC4CC(CC(NC(=O)c5ccnc(C)n5)(C4)C2)C3)n1` [Example 193, 2-Methyl-pyrimidine-4-carboxylic acid {3-[(4-methyl-pyrimidine-2-carbonyl)-amino]-adamantan-1-yl}-amide] cannot be ordered by Emax: 70 to 99% for the first, 63 to 99% for the second.

`O=C(NC12CC3CC(C1)CC(NC(=O)c1cccc(N4CCOCC4)n1)(C3)C2)c1cccc(F)c1` [Example 215, 6-Morpholin-4-yl-pyridine-2-carboxylic acid [3-(3-fluoro-benzoylamino)-adamantan-1-yl]-amide] and `CN(C)CCNc1cccc(C(=O)NC23CC4CC(CC(NC(=O)c5cccc(F)c5)(C4)C2)C3)n1` [Example 242, 6-(2-Dimethylamino-ethylamino)-pyridine-2-carboxylic acid [3-(3-fluoro-benzoylamino)-adamantan-1-yl]-amide] fall in the same range of Emax: 63 to 99% for the first, 63 to 99% for the second.

`Cc1cccc(C(=O)NC23CC4CC(C2)CC(NC(=O)c2ccc5cnccc5n2)(C4)C3)n1` [Example 123, [1,6]Naphthyridine-2-carboxylic acid {3-[(6-methyl-pyridine-2-carbonyl)-amino]-adamantan-1-yl}-amide] and `Cc1cccc(C(=O)NC23CC4CC(C2)CC(NC(=O)c2cccc(N)n2)(C4)C3)n1` [Example 117, 6-Methyl-pyridine-2-carboxylic acid {3-[(6-aminopyridine-2-carbonyl)-amino]-adamantan-1-yl}-amide] fall in the same range of Emax: 70 to 99% for the first, 70 to 99% for the second.

`O=C(NC12CC3CC(C1)CC(NC(=O)c1cccc(N4CCC(O)C4)n1)(C3)C2)c1ccccn1` (stereo not shown) [Example 201, 6-(3-Hydroxy-pyrrolidin-1-yl)-pyridine-2-carboxylic acid {3-[(pyridine-2-carbonyl)-amino]-adamantan-1-yl}-amide] and `CN(C)CCCN(C)c1cccc(C(=O)NC23CC4CC(CC(NC(=O)c5ccccn5)(C4)C2)C3)n1` [Example 221, 6-[(3-Dimethylamino-propyl)-methyl-amino]-pyridine-2-carboxylic acid {3-[(pyridine-2-carbonyl)-amino]-adamantan-1-yl}-amide] fall in the same range of Emax: 63 to 99% for the first, 63 to 99% for the second.

`COC(=O)c1cccc(C(=O)NC23CC4CC(CC(NC(=O)c5cccc(C)n5)(C4)C2)C3)n1` [Example 139, 6-{3-[(6-Methyl-pyridine-2-carbonyl)-amino]-adamantan-1-ylcarbamoyl}-pyridine-2-carboxylic acid methyl ester] and `Cc1cccc(C(=O)NC23CC4CC(C2)CC(NC(=O)c2cccc(NCCO)n2)(C4)C3)n1` [Example 208, 6-(2-Hydroxy-ethylamino)-pyridine-2-carboxylic acid {3-[(6-methyl-pyridine-2-carbonyl)-amino]-adamantan-1-yl}-amide] cannot be ordered by Emax: 70 to 99% for the first, 63 to 99% for the second.

`Cc1cccc(C(=O)NC23CC4CC(CC(NC(=O)c5ccc6c(c5)OCCO6)(C4)C2)C3)n1` [Example 124, 6-Methyl-pyridine-2-carboxylic acid {3-[(2,3-dihydro-benzo[1,4]dioxine-6-carbonyl)-amino]-adamantan-1-yl}-amide] gave an Emax of 70 to 99%.

Source: US8716284B2, “Adamantyl diamide derivatives and uses of same” (H. Lundbeck A/S, priority 2008, dated 2014)
